Assay results from patent US5179085A, “N-substituted α-amino acids and derivatives thereof having pharmaceutical activity” (Warner-Lambert Company, priority 1991, dated 1993).
Where a name gives a salt, the structure may show the parent alone.

What was measured:
NMDA receptors = experiment: [3H]CPP NMDA receptor binding assay; conditions: for IC50: [3H]CPP displacement; for % Inhibition (10^-4 M): at 10^-4 M
Description: (§1) Thus, the compounds of Formula I were tested in vitro for their ability to block NMDA receptors in a binding assay with [^3 H]3-(2-carboxypiperazin-4-yl)propyl-1-phosphonic acid ([^3 H]CPP) carried out essentially by a method previously described by Murphy, D. E., et al, Journal of Pharmacology and Experimental Therapeutics, Volume 240, pp 778-784 (1987); and for their ability to inhibit glutamate-induced [Ca^++ ] influx (GCI) carried out essentially by a method previously described by Marcoux, F. W., et al, "Sigma and Phencyclidine like Compounds as Molecular Probes in Biology", pp 735-746, Domino, E. F. and J. N. Kamenka, eds., NPP Books, Ann Arbor, Michigan, 1988 and Choi, D. W., et al, Journal of Neuroscience, Volume 8, pp 185-196 (1988). The aforementioned lest methods are incorporated herein by reference.

[1] = test system: glutamate-induced [Ca^++ ] influx; experiment: Inhibition of glutamate-induced [Ca++] influx (GCI); assay type: cell-based
Description: as §1

O=C(O)CNCCC=CP(=O)(O)O (mixture of isomers) [Example 10a, N-[4-Phosphono-3-butenyl)glycine, diammonium salt. (Mixture of E and Z isomers)]
IC50 (NMDA receptors): 2.45 µM

CC(NCC=CCP(=O)(O)O)C(=O)O.Cl (racemic) [Example 8p, N-(4-Phosphono-2-butenyl)-DL-alanine, monohydrochloride]
% Inhibition (10^-4 M) (NMDA receptors): 58%

O=C(O)CNCc1cccc(CP(=O)(O)O)c1 [Example 8d, N-[[3-(Phosphonomethyl)phenyl]methyl]glycine, hydrochloride]
IC50 (NMDA receptors): 2.24 µM | IC50 [1]: 79 µM

O=C(O)CNCCc1cccc(CP(=O)(O)O)c1 [Example 8g, N-[2-[3-(Phosphonomethyl)phenyl]ethyl] glycine, monohydrochloride]
% Inhibition (10^-4 M) (NMDA receptors): 86%

O=C(O)CNCc1ccc(CP(=O)(O)O)cc1 [Example 8h, N-[[4-(Phosphonomethyl)phenyl]methyl]glycine, monohydrochloride]
IC50 (NMDA receptors): 5.2 µM | IC50 [1]: 120 µM

O=C(O)CNCC=CCP(=O)(O)O [Example 8o, N-(4-Phosphono-2-butenyl)glycine, monohydrochloride]
IC50 (NMDA receptors): 1.2 µM | IC50 [1]: 18 µM
